Square brackets hold non-standard residues; d marks the D form. Peptide text beside a SMILES is read from it. Dmt = Cc1cc(O)cc(C)c1C[C@H](N)C(=O)O; β3hF = N[C@H](CC(=O)O)Cc1ccccc1; Sar = CNCC(=O)O
Assays:
[1] = biological target: T1, δ-opioid receptor (DOR) (Homo sapiens, UniProt P41143); experiment: DOR agonist cAMP assay (HitHunter cAMP, forskolin-stimulated); type: cell-based
T1 construct: host or cells: cAMP Hunter CHO-K1 OPRD1 Gαi cell line
Summary of the method: (§1)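 CHO-K1 Gαi cells expressing OPRM1 or OPRD1 were exposed 30 min at 37° C to 11-point threefold agonist dilutions, in duplicate, with 20 uM forskolin final. cAMP quantified by EFC chemiluminescent competitive immunoassay against cAMP standards. EC50 by four-parameter Hill nonlinear regression.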

[2] = SGF assay (stability in simulated gastric fluid); type: in vitro ADME; conditions: pig, simulated gastric fluid (SGF) with porcine pepsin, pH 2, pepsin, 37° C.
Method: SGF was prepared by adding 20 mg NaCl, 32 mg porcine pepsin (MP Biochemicals, catalog 02102599), and 70 μl HCl to 10 ml water (final pH=2). Aliquots of SGF (0.5 ml each) were pre-warmed at 37° C. To start the reaction, 1 μl of opioid agonist peptide stock solution (10 mM in DMSO) was added to 0.5 ml SGF and thoroughly mixed such that the final peptide concentration was 20 μM. The reactions were incubated at 37° C. with gentle shaking.
At each timepoint (0, 15, 30, 60 min) 50 µl aliquots were removed and added to 200 ul of acetonitrile containing 0.1% formic acid to quench the reaction. Samples were stored at 4° C. until the end of the experiment and centrifuged at 10,000 rpm for 5 minutes. Aliquots of the supernatant were removed, diluted 1:1 into distilled water containing internal standard, and analyzed by LCMS/MS. The percent of the opioid agonist peptide remaining at each timepoint was calculated based on the peak area response ratio of the opioid agonist peptide to the internal standard. Time 0 was set to 100%, and all later timepoints were calculated relative to time 0. Half-lives were calculated by fitting to a first-order exponential decay equation using GraphPad.

[3] = SIF assay (stability in simulated intestinal fluid); type: in vitro ADME; conditions: simulated intestinal fluid (SIF) with pancreatin; simulated intestinal fluid, pH 6.8, pancreatin, 37° C., 20 μM
Method: SIF was prepared by adding 6.8 g of monobasic potassium phosphate and 10.0 g of pancreatin to 1.0 L of water. After dissolution, the pH was adjusted to 6.8 using NaOH. DMSO stocks (2 mM) were prepared for each of the opioid agonist peptides. Aliquots of the DMSO solutions were dosed into […], each containing 0.5 mL of SIF, which was pre-warmed to 37° C. The final opioid agonist peptide concentration was 20 μM. The vials were kept in a benchtop Thermomixer® for the duration of the experiment. At each timepoint (0, 5, 10, 20, 40, 60, or 360 minutes or 24 hours), 1.0 mL of acetonitrile containing 1% formic acid was added to one vial to terminate the reaction. Samples were stored at 4° C. until the end of the experiment. After the final timepoint was sampled, the tubes were mixed and then centrifuged at 3,000 rpm for 10 minutes. Aliquots of the supernatant were removed, diluted 1:1 into distilled water containing an internal standard, and analyzed by LCMS/MS. The percent of the opioid agonist peptide remaining at each timepoint was calculated based on the peak area response ratio of opioid agonist peptide to the internal standard. Time 0 was set to 100%, and all later timepoints were calculated relative to time 0. Half-lives were calculated by fitting to a first-order exponential decay equation using Graph pad.

[4] = biological target: T2, μ-opioid receptor (MOR) (Homo sapiens, UniProt P35372); experiment: MOR agonist cAMP assay (HitHunter cAMP, forskolin-stimulated); type: cell-based
T2 construct: host or cells: cAMP Hunter CHO-K1 OPRM1 Gαi cell line
Summary of the method: as §1

T2 sequence (P35372 whole entry): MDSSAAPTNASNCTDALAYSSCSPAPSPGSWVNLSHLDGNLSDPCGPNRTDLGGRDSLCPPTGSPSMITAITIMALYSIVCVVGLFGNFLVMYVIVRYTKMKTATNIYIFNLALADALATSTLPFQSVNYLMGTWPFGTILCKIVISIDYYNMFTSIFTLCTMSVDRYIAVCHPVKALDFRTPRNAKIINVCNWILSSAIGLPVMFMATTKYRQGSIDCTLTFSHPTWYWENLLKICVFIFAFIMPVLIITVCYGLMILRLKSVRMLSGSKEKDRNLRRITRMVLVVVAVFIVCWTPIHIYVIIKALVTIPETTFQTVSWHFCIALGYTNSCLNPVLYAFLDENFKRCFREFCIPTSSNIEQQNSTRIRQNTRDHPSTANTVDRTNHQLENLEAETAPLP
T1 sequence (P41143 whole entry): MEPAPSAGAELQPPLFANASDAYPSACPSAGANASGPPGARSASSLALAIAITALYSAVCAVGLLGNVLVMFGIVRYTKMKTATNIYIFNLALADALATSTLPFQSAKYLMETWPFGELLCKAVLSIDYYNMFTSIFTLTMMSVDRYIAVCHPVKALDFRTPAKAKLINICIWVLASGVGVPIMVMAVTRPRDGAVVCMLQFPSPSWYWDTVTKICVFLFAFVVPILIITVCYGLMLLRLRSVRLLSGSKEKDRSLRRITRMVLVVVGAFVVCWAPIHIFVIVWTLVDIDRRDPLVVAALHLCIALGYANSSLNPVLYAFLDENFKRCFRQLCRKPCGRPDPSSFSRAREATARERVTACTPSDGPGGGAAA

Cc1cc(O)cc(C)c1C[C@H](N)C(=O)N[C@H](C)C(=O)NC(C)(C)C(=O)N[C@H](CC(=O)N(C)CC(N)=O)Cc1ccccc1 [compound 72] showed an EC50 [1] of less than 1 nM, a half-life at 20 μM [2] of 0.167 to 6 h and a half-life at 20 μM [3] greater than 24 h. The EC50 [4] was less than 1 nM.

With Cc1cc(C(N)=O)cc(C)c1C[C@H](N)C(=O)N[C@H](C)C(=O)NCC(=O)N[C@H](CC(=O)N(C)[C@H](C(=O)O)c1ccccc1)Cc1ccccc1 [compound 99] the EC50 [1] was less than 1 nM, the half-life at 20 μM [2] was greater than 24 h and the half-life at 20 μM [3] was greater than 24 h. The EC50 [4] was less than 1 nM.

Cc1cc(C(N)=O)cc(C)c1C[C@H](N)C(=O)N[C@H](C)C(=O)NCC(=O)N[C@H](CC(=O)N(C)[C@@H](Cc1ccc(O)cc1)C(=O)O)Cc1ccccc1 [compound 102] showed an EC50 [1] of less than 1 nM, a half-life at 20 μM [2] greater than 24 h and a half-life at 20 μM [3] greater than 24 h. It also gave an EC50 [4] of less than 1 nM.

Cc1cc(C(N)=O)cc(C)c1C[C@H](N)C(=O)N[C@H](Cc1ccc(O)cc1)C(=O)NCC(=O)N[C@H](CC(=O)N(C)CC(N)=O)Cc1ccccc1 [compound 85] showed an EC50 [1] of less than 1 nM, a half-life at 20 μM [2] of 6 to 24 h and a half-life at 20 μM [3] greater than 24 h. The EC50 [4] was less than 1 nM.

In the case of Cc1cc(O)cc(C)c1C[C@H](N)C(=O)N[C@H](C)C(=O)N[C@@H](C)C(=O)N[C@H](CC(=O)N(C)CC(N)=O)Cc1ccccc1 [compound 66] (H-[Dmt][dA]A[β3hF][Sar]-NH2), the half-life at 20 μM [2] is reported as 0.167 to 6 h and the half-life at 20 μM [3] is reported as greater than 24 h.

Cc1cc(O)cc(C)c1C[C@H](N)C(=O)N[C@@H](C(=O)NCC(=O)N[C@H](CC(=O)N(C)CC(N)=O)Cc1ccccc1)[C@H](C)O [compound 82] showed an EC50 [1] of less than 1 nM, a half-life at 20 μM [2] greater than 24 h and a half-life at 20 μM [3] greater than 24 h. For the same compound, the EC50 [4] was less than 1 nM.

Work on Cc1cc(O)cc(C)c1C[C@H](N)C(=O)N[C@H](C)C(=O)NCC(=O)N[C@H](CC(=O)N(C)CC(=O)O)Cc1ccccc1 [compound 87] yielded an EC50 [1] of less than 1 nM, a half-life at 20 μM [2] of 6 to 24 h and a half-life at 20 μM [3] greater than 24 h.

For Cc1cc(O)cc(C)c1C[C@H](N)C(=O)N[C@H](CC(=O)O)C(=O)NCC(=O)N[C@H](CC(=O)NCC(N)=O)Cc1ccccc1 [compound 179] (H-[Dmt][dD]G[β3hF]G-NH2), the EC50 [1] was less than 1 nM, the half-life at 20 μM [2] was greater than 24 h and the half-life at 20 μM [3] was greater than 24 h. It also gave an EC50 [4] of less than 1 nM.

For Cc1cc(O)cc(C)c1C[C@H](N)C(=O)N[C@H](C)C(=O)NCC(=O)N[C@H](CC(=O)N(CCC(C)C)CC(N)=O)Cc1ccccc1 [compound 116], the EC50 [1] was less than 1 nM, the half-life at 20 μM [2] was greater than 24 h and the half-life at 20 μM [3] was greater than 24 h.

With CCCC[C@@H](C(=O)O)N(C)C(=O)C[C@H](Cc1ccccc1)NC(=O)CNC(=O)[C@@H](C)NC(=O)[C@@H](N)Cc1c(C)cc(O)cc1C [compound 159] the half-life at 20 μM [2] was greater than 24 h, the half-life at 20 μM [3] was greater than 24 h and the EC50 [4] was less than 1 nM.

C[C@@H](NC(=O)[C@@H](N)Cc1ccc(O)c(F)c1)C(=O)NCC(=O)N[C@H](CC(=O)N(C)CC(N)=O)Cc1ccccc1 [compound 57] gave an EC50 [1] of 1 to 10 nM, a half-life at 20 μM [2] greater than 24 h and a half-life at 20 μM [3] of 6 to 24 h.

Cc1cc(O)cc(C)c1C[C@H](N)C(=O)N[C@H](C)C(=O)NCC(=O)N[C@H](CC(=O)N(C)[C@@H](CC(C)C)C(=O)O)Cc1ccccc1 [compound 155] gave a half-life at 20 μM [2] greater than 24 h, a half-life at 20 μM [3] greater than 24 h and an EC50 [4] of less than 1 nM.

For Cc1cc(O)cc(C)c1C[C@H](N)C(=O)N[C@H](C)C(=O)NCC(=O)N[C@H](CC(=O)NCC(N)=O)Cc1ccccc1 [compound 112], the EC50 [1] was less than 1 nM, the half-life at 20 μM [2] was greater than 24 h and the half-life at 20 μM [3] was greater than 24 h.

Work on Cc1cc(O)cc(C)c1C[C@H](N)C(=O)N[C@H](C)C(=O)NCCC(=O)N[C@H](CC(=O)N(C)CC(N)=O)Cc1ccccc1 [compound 73] yielded an EC50 [1] of 50 to 200 nM, a half-life at 20 μM [2] of 0.167 to 6 h and a half-life at 20 μM [3] greater than 24 h.

Work on Cc1cc(O)cc(C)c1C[C@H](N)C(=O)N[C@H](C)C(=O)NCC(=O)N[C@H](CC(=O)N(CCCOC(C)C)CC(N)=O)Cc1ccccc1 [compound 117] yielded an EC50 [1] of less than 1 nM, a half-life at 20 μM [2] greater than 24 h and a half-life at 20 μM [3] greater than 24 h.
